Structures can show the parent of a compound that is named as a salt. Where two headings read alike, the source gives them in different places.
Columns and labels:
Format in all cases: in vivo
Male mice of ddY strain [1] = test: Test 1 Anti-nicotine activity (inhibition of nicotine-induced convulsive death); conditions: 200 mg/kg po, nicotine 2 mg/kg iv after 1 h, observed 1 h; for responders at 200 mg/kg: Mus musculus
Procedure: Male mice of ddY strain, weighing 28 to 33 g, were used in groups of eight or twelve. The test compounds were dissolved in distilled water and administered orally in a dose of 200 mg/kg. After an hour, nicotine was intravenously administered in a dose of 2 mg/kg.

Male mice of ddY strain [2] = test: Test 2 Anti-tremorine activity (inhibition of tremorine-induced tremor); conditions: for responders at 50 mg/kg: Mus musculus, po, read-out: Inhibition of tremor (%)
Procedure: Male mice of ddY strain, weighing 28 to 32 g, were used in groups of eight or ten. The test compounds were dissolved in distilled water and administered orally in a dose of 50 mg/kg. After 30 minutes, tremorine dihydrochloride was subcutaneously administered in a dose of 20 mg/kg. Then, the occurrence of tremor was observed after the lapse of 30 and 60 minutes.

Male mice of ddY strain [3] = test: Test 3 Muscle relaxant activity (traction test, method of Courvoisier et al.); conditions: 15 minutes after administration, groups of ten
Procedure: Male mice of ddY strain, weighing 30 to 37 g, were used in groups of ten. The test compounds were dissolved in physiological saline and administered intraperitoneally in a dose of 50 or 75 mg/kg. […] This method involves a traction test in which the animal is hung by its forelimbs on a horizontal metal rod (2 mm in diameter) placed 20 cm above the floor and examined as to whether it can put its hindlimb on the rod or not.
Specifically, 15 minutes after administration of a test compound, the mouse was hung on the rod by its forelimbs. […] It had been confirmed in preliminary tests that, under normal conditions, all the mice could put their hindlimb on the rod within 5 seconds.

[4] = test system: Male rats of Wistar strain; test: Test 4 Effect on decerebrate rigidity induced by transection between superior and inferior colliculi
Procedure: Male rats of Wistar strain, weighing 300 to 400 g, were used. The test compounds were dissolved in physiological saline and administered intravenously in doses of 10 mg/kg and 20 mg/kg.
Rigidity preparations were made according to the method of Fukuda et al. [The Japanese Journal of Pharmacology, 22, 457 (1972)]. Specifically, after a rat was fixed in a prone position under ether anesthesia, an incision was made in the head. The skull was removed around the occipital region to expose the brain. […] More than 2 hours after operation, the rat was mounted in a supine position on a fixing stand. Thus, the effect of the test compounds was evaluated by using the occurrence of rigidity in the antigravity muscles of the limbs as an index.

[5] = Test 5 Acute toxicity (LD50, method of Behrens and Kärbar); conditions: mouse, in vivo, mice, observed for 7 days
Procedure: (§1) Male mice of ddY strain, weighing 25 to 30 g, were used in groups of five. The test compounds were dissolved in distilled water and administered orally in various doses. […] Then, the LDso was calculated according to the method of Behrens and Kärbar.

Male mice of ddY strain [6] = test: as above; conditions: Table-5a, observed for 7 days
Procedure: as §1

[7] = Table-3d, 50 mg/kg po, After 30 min., 10 animals used
[8] = Table-3d, 50 mg/kg po, After 60 min., 10 animals used
[9] = po, 1 h, Table-2c, 12 animals used
[10] = 0.5 h, Table-3d, 50 mg/kg po, After 30 min., 10 animals used
[11] = 1 h, Table-3d, 50 mg/kg po, After 60 min., 10 animals used
[12] = Table-3a, 50 mg/kg po, After 30 min. from tremorine 20 mg/kg sc, 8 animals used
[13] = Table-3a, 50 mg/kg po, After 60 min. from tremorine 20 mg/kg sc, 8 animals used

CC(CN1CCCC1)C(=O)c1ccc2c(c1)CCO2.Cl (stereo not shown) [Example 92, 1-(2,3-Dihydro-5-benzofuranyl)-2-methyl-3-(1-pyrrolidinyl)-1-propanone hydrochloride]
responders at 200 mg/kg (Male mice of ddY strain [1]; Table-2c, 12 animals used): 75% | Number of surviving animals (Male mice of ddY strain [1]; Table-2c, 12 animals used): 9 | responders at 50 mg/kg (Male mice of ddY strain [2]; 0.5 h): 100% | responders at 50 mg/kg (Male mice of ddY strain [2]; 1 h): 100% | Number of animals exhibiting no tremor (Male mice of ddY strain [2]; [7]): 10 | Number of animals exhibiting no tremor (Male mice of ddY strain [2]; [8]): 10 | Number of animals exhibiting muscle relaxation (Male mice of ddY strain [3]; Table-4d, 75 mg/kg ip): 6 | rigidity of the forelimbs and hindlimbs ([4]; 20 mg/kg intravenously): relaxed the rigidity similarly | LD50 at 168 h ([5]; Table-5c, oral): 685 mg/kg

CCCC(CN1CCCCC1)C(=O)c1ccc2c(c1)OCO2 (stereo not shown) [Example 66, 1-(3,4-Methylenedioxyphenyl)-2-n-propyl-3-piperi-dino-1-propanone hydrochloride]
responders at 200 mg/kg (Male mice of ddY strain [1]; Table-2b, 12 animals used): 58.3% | Number of surviving animals (Male mice of ddY strain [1]; Table-2b, 12 animals used): 7 | rigidity of the forelimbs and hindlimbs ([4]; 20 mg/kg intravenously): relaxed the rigidity similarly | LD50 at 168 h ([5]; Table-5b, oral): 625 mg/kg

CC(CN1CCCCC1)C(=O)c1ccc2c(c1)CCO2.Cl (stereo not shown) [Example 85, 1-(2,3-Dihydro-5-benzofuranyl)-2-methyl-3-piperidino-1-propanone hydrochloride]
responders at 200 mg/kg (Male mice of ddY strain [1]; [9]): 66.7% | Number of surviving animals (Male mice of ddY strain [1]; Table-2c, 12 animals used): 8 | responders at 50 mg/kg (Male mice of ddY strain [2]; [10]): 100% | responders at 50 mg/kg (Male mice of ddY strain [2]; [11]): 100% | Number of animals exhibiting no tremor (Male mice of ddY strain [2]; [7]): 10 | Number of animals exhibiting no tremor (Male mice of ddY strain [2]; [8]): 10 | Number of animals exhibiting muscle relaxation (Male mice of ddY strain [3]; Table-4d, 75 mg/kg ip): 8 | rigidity of the forelimbs and hindlimbs ([4]; 20 mg/kg intravenously): relaxed the rigidity similarly | LD50 at 168 h ([5]; po, Table-5c): 625 mg/kg

CC(CN1CCCCC1)C(=O)c1ccc2c(c1)OCO2.Cl (stereo not shown) [Example 57, 2-Methyl-1-(3,4-methylenedioxyphenyl)-3-piperidino-1-propanone hydrochloride]
responders at 200 mg/kg (Male mice of ddY strain [1]; Table-2b, 12 animals used): 41.7% | Number of surviving animals (Male mice of ddY strain [1]; Table-2b, 12 animals used): 5 | rigidity of the forelimbs and hindlimbs ([4]; 20 mg/kg intravenously): relaxed the rigidity similarly | LD50 at 168 h ([5]; Table-5b, oral): 625 mg/kg

CC(CN1CCCCCC1)C(=O)c1ccc2c(c1)CCO2.Cl (stereo not shown) [Example 93, 1-(2,3-Dihydro-5-benzofuranyl)-2-methyl-3-(hexahydro-1H-azepin-1-yl)-1-propanone hydrochloride]
responders at 200 mg/kg (Male mice of ddY strain [1]; [9]): 58.3% | Number of surviving animals (Male mice of ddY strain [1]; Table-2c, 12 animals used): 7 | responders at 50 mg/kg (Male mice of ddY strain [2]; [10]): 100% | responders at 50 mg/kg (Male mice of ddY strain [2]; [11]): 100% | Number of animals exhibiting no tremor (Male mice of ddY strain [2]; [7]): 10 | Number of animals exhibiting no tremor (Male mice of ddY strain [2]; [8]): 10 | Number of animals exhibiting muscle relaxation (Male mice of ddY strain [3]; Table-4d, 75 mg/kg ip): 6 | rigidity of the forelimbs and hindlimbs ([4]; 20 mg/kg intravenously): relaxed the rigidity similarly | LD50 at 168 h ([5]; po, Table-5c): 685 mg/kg

1-(4-Cyclopropylphenyl)-2-methyl-3-piperidino-1-propanone hydrochloride [Example 1]
Inhibition of death (%) (Male mice of ddY strain [1]; Table-2a, 8 animals used): 100.0% | Number of surviving animals (Male mice of ddY strain [1]; Table-2a, 8 animals used): 8 | Inhibition of tremor (%) (Male mice of ddY strain [2]; [12]): 100% | Number of animals exhibiting no tremor (Male mice of ddY strain [2]; [12]): 8 | Inhibition of tremor (%) (Male mice of ddY strain [2]; [13]): 87.5% | Number of animals exhibiting no tremor (Male mice of ddY strain [2]; [13]): 7 | Muscle relaxation rate (%) (Male mice of ddY strain [3]; Table-4a, 50 mg/kg ip): 60% | Number of animals exhibiting muscle relaxation (Male mice of ddY strain [3]; Table-4a, 50 mg/kg ip): 6 | rigidity of the forelimbs and hindlimbs ([4]; 10 mg/kg intravenously): relaxed the rigidity of the forelimbs and hindlimbs to a significant degree | Acute toxicity LD50 (mg/kg,po) (Male mice of ddY strain [6]): 535 mg/kg

CCC(CN1CCCCC1)C(=O)c1ccc2c(c1)OCO2.Cl (stereo not shown) [Example 53, 2-Ethyl-1-(3,4-methylenedioxyphenyl)-3-piperidino-1-propanone hydrochloride]
responders at 200 mg/kg (Male mice of ddY strain [1]; po, 1 h, Table-2b, 12 animals used): 83.3% | Number of surviving animals (Male mice of ddY strain [1]; Table-2b, 12 animals used): 10 | rigidity of the forelimbs and hindlimbs ([4]; 20 mg/kg intravenously): relaxed the rigidity similarly | LD50 at 168 h ([5]; po, Table-5b): 565 mg/kg

From EP0163537A1, “1-Propanone derivatives and pharmaceutical compositions containing same” (priority 1984, dated 1985)
